Read-outs that look alike come from different tables or passages of the source.
Assays:
H. pylori [1] = assay: Verification of resistance breakpoint: growth of laboratory strains on Columbia solid culture medium with added antibiotics, 72 hours; assay type: cell-based, Helicobacter pylori
H. pylori [2] = conditions: bacterial count 1×10^6 CFU/mL; cited from earlier work
H. pylori [3] = assay: Drug resistance testing of laboratory strains on characteristic culture medium (discoloration after 36 hours); assay type: cell-based, Helicobacter pylori
Description: The characteristic culture media (A, B, C, D, E) are cultivated at a constant temperature of 37° C. for 36 hours in a three gas incubator. The characteristic culture media are removed and placed in a natural environment for 30 minutes to observe whether there are discolorations at the point of the culture medium where the specimen is dropped in. […] Another 100 μL of the specimen is taken and coated on Columbia solid culture medium and cultivated in a three gas incubator at a constant temperature of 37° C. for 3 days to 5 days. The number of colonies on the plate is counted to determine the initial inoculation amount. The micro dilution method is adopted to test the MIC of clinical specimen H. pylori, the test is meaningful only when there is no bacterial growth in the negative control well without bacteria and there is bacterial growth in the positive well with bacteria but without antibiotics. […] The results are recorded and whether the micro dilution method and characteristic culture medium are consistent with each other in evaluating the drug resistance of clinical H. pylori strains is compared. […]
(2) Inoculation of bacterial solution: 10 μL bacterial solution is taken and added dropwise onto a characteristic culture medium with 5 pieces (ABCDE) in total.
(3) Culture: all plates are moved to a three gas incubator and cultivated at 37° C. for 36 hours. After being taken out and placed in a natural environment for 30 minutes, whether the bacteria have resistance is determined based on the discoloration of the characteristic culture medium.

[4] = test system: clinical H. pylori strain; assay: MIC of clinical H. pylori strains by micro dilution method; assay type: cell-based; conditions: Helicobacter pylori, 72 h, approximately 1.0×10^6 CFU/mL per well, 72 hours, read-out: MIC
H. pylori [5] = assay: MIC of laboratory H. pylori strains by micro dilution method; assay type: cell-based; conditions: Helicobacter pylori

For Cc1ncc([N+](=O)[O-])n1CCO [Metronidazole, metronidazole], the “optimal concentration for adding antibiotics” value (H. pylori [1]; conclusion of breakpoint verification) was 4 µg/mL, the “growth of sensitive strains” value (H. pylori [1]; levofloxacin 0.5, clarithromycin 0.5, metronidazole 4, amoxicillin 0.5 μg/mL) was “no sensitive strain grows” and the growth of bacterial (H. pylori [1]; strain 159, antibiotic 2 μg/mL) was “+”. The growth of bacterial (H. pylori [1]; strain 159, antibiotic 4 μg/mL) was “+”, the growth of bacterial (H. pylori [1]; strain 159, antibiotic 8 μg/mL) was “−” and the growth of bacterial (H. pylori [1]; strain 161, antibiotic 2 μg/mL) was “+”. The growth of bacterial (H. pylori [1]; strain 161, antibiotic 4 μg/mL) was “+”, the growth of bacterial (H. pylori [1]; strain 161, antibiotic 8 μg/mL) was “−” and the growth of bacterial (H. pylori [1]; strain 162, antibiotic 2 μg/mL) was “+”. For the same molecule, the growth of bacterial (H. pylori [1]; strain 162, antibiotic 4 μg/mL) was “−”, the growth of bacterial (H. pylori [1]; strain 162, antibiotic 8 μg/mL) was “−” and the growth of bacterial (H. pylori [1]; strain 163, antibiotic 2 μg/mL) was “+”. The growth of bacterial (H. pylori [1]; strain 163, antibiotic 4 μg/mL) was “+”, the growth of bacterial (H. pylori [1]; strain 163, antibiotic 8 μg/mL) was “−” and the growth of bacterial (H. pylori [1]; strain 286, antibiotic 2 μg/mL) was “+”. The growth of bacterial (H. pylori [1]; strain 286, antibiotic 4 μg/mL) was “+”, the growth of bacterial (H. pylori [1]; strain 286, antibiotic 8 μg/mL) was “−” and the growth of bacterial (H. pylori [1]; strain 287, antibiotic 2 μg/mL) was “+”. For the same molecule, the growth of bacterial (H. pylori [1]; strain 287, antibiotic 4 μg/mL) was “+”, the growth of bacterial (H. pylori [1]; strain 287, antibiotic 8 μg/mL) was “−” and the growth of bacterial (H. pylori [1]; strain 289, antibiotic 2 μg/mL) was “+”. The growth of bacterial (H. pylori [1]; strain 289, antibiotic 4 μg/mL) was “+”, the growth of bacterial (H. pylori [1]; strain 289, antibiotic 8 μg/mL) was “−” and the growth of bacterial (H. pylori [1]; strain 290, antibiotic 2 μg/mL) was “+”. For the same molecule, the growth of bacterial (H. pylori [1]; strain 290, antibiotic 4 μg/mL) was “+”, the growth of bacterial (H. pylori [1]; strain 290, antibiotic 8 μg/mL) was “+” and the growth of bacterial (H. pylori [1]; strain 26695, antibiotic 2 μg/mL) was “+”. The growth of bacterial (H. pylori [1]; strain 26695, antibiotic 4 μg/mL) was “−”, the growth of bacterial (H. pylori [1]; strain 26695, antibiotic 8 μg/mL) was “−” and the growth of bacterial (H. pylori [1]; strain G27, antibiotic 2 μg/mL) was “+”. The growth of bacterial (H. pylori [1]; strain G27, antibiotic 4 μg/mL) was “−”, the growth of bacterial (H. pylori [1]; strain G27, antibiotic 8 μg/mL) was “−” and the “resistance breakpoints of H. pylori according to CLSI guidelines” value (H. pylori [2]) was 8 µg/mL. The “drug resistance determined by discoloration of characteristic culture medium” value (“drug resistance determined” below) (H. pylori [3]; strain 159, 1×10^6 CFU/mL) was “developed resistance”, the “drug resistance determined” value (H. pylori [3]; strain 286, 1×10^6 CFU/mL) was “have developed resistance” and the “drug resistance determined” value (H. pylori [3]; strain 287, 1×10^6 CFU/mL) was “have developed resistance”. The “drug resistance determined” value (H. pylori [3]; strain 289, 1×10^6 CFU/mL) was “have developed resistance”, the “drug resistance determined” value (H. pylori [3]; strain G27, 1×10^6 CFU/mL) was “does not develop resistance” and the MIC ([4]; clinical strain FY-31) was 1 µg/mL. For the same molecule, the MIC ([4]; clinical strain FY-43) was 0.5 µg/mL, the MIC ([4]; clinical strain FY-47) was 16 µg/mL and the MIC ([4]; clinical strain FY-52) was 1 µg/mL. The MIC (H. pylori [5]; read-out: MICs, standard sensitive strains G27 and 26695, bacterial count 1×10^6 CFU/mL) was 0.25 µg/mL, the MIC (H. pylori [5]; read-out: minimum inhibitory concentration (MIC), strain 159, bacterial count 10^6 CFU/mL (first line of the strain)) was 4 µg/mL and the MIC (H. pylori [5]; read-out: minimum inhibitory concentration (MIC), strain 159, bacterial count 10^6 CFU/mL (second line of the strain)) was 2 µg/mL. It also gave an MIC (H. pylori [5]; read-out: minimum inhibitory concentration (MIC), strain 161, bacterial count 10^4 CFU/mL) of 1 µg/mL, an MIC (H. pylori [5]; read-out: minimum inhibitory concentration (MIC), strain 161, bacterial count 10^6 CFU/mL (first line of the strain)) of 4 µg/mL and an MIC (H. pylori [5]; read-out: minimum inhibitory concentration (MIC), strain 161, bacterial count 10^6 CFU/mL (second line of the strain)) of 2 µg/mL. For the same molecule, the MIC (H. pylori [5]; read-out: minimum inhibitory concentration (MIC), strain 162, bacterial count 10^6 CFU/mL (first line of the strain)) was 2 µg/mL, the MIC (H. pylori [5]; read-out: minimum inhibitory concentration (MIC), strain 162, bacterial count 10^6 CFU/mL (second line of the strain)) was 1 µg/mL and the MIC (H. pylori [5]; read-out: minimum inhibitory concentration (MIC), strain 163, bacterial count 10^4 CFU/mL) was 2 µg/mL. For the same molecule, the MIC (H. pylori [5]; read-out: minimum inhibitory concentration (MIC), strain 163, bacterial count 10^6 CFU/mL (first line of the strain)) was 16 µg/mL, the MIC (H. pylori [5]; read-out: minimum inhibitory concentration (MIC), strain 163, bacterial count 10^6 CFU/mL (second line of the strain)) was 4 µg/mL and the MIC (H. pylori [5]; read-out: minimum inhibitory concentration (MIC), strain 286, bacterial count 10^4 CFU/mL) was 4 µg/mL. It also gave an MIC (H. pylori [5]; read-out: minimum inhibitory concentration (MIC), strain 286, bacterial count 10^6 CFU/mL (first line of the strain)) of 32 µg/mL, an MIC (H. pylori [5]; read-out: minimum inhibitory concentration (MIC), strain 286, bacterial count 10^6 CFU/mL (second line of the strain)) of 16 µg/mL and an MIC (H. pylori [5]; read-out: minimum inhibitory concentration (MIC), strain 287, bacterial count 10^4 CFU/mL) of 8 µg/mL. For the same molecule, the MIC (H. pylori [5]; read-out: minimum inhibitory concentration (MIC), strain 287, bacterial count 10^6 CFU/mL (first line of the strain)) was 32 µg/mL, the MIC (H. pylori [5]; read-out: minimum inhibitory concentration (MIC), strain 287, bacterial count 10^6 CFU/mL (second line of the strain)) was 16 µg/mL and the MIC (H. pylori [5]; read-out: minimum inhibitory concentration (MIC), strain 289, bacterial count 10^4 CFU/mL) was 8 µg/mL. For the same molecule, the MIC (H. pylori [5]; read-out: minimum inhibitory concentration (MIC), strain 289, bacterial count 10^6 CFU/mL (first line of the strain)) was 32 µg/mL, the MIC (H. pylori [5]; read-out: minimum inhibitory concentration (MIC), strain 289, bacterial count 10^6 CFU/mL (second line of the strain)) was 16 µg/mL and the MIC (H. pylori [5]; read-out: minimum inhibitory concentration (MIC), strain 290, bacterial count 10^4 CFU/mL) was 4 µg/mL. For the same molecule, the MIC (H. pylori [5]; read-out: minimum inhibitory concentration (MIC), strain 290, bacterial count 10^6 CFU/mL (first line of the strain)) was 32 µg/mL, the MIC (H. pylori [5]; read-out: minimum inhibitory concentration (MIC), strain 290, bacterial count 10^6 CFU/mL (second line of the strain)) was 16 µg/mL and the MIC (H. pylori [5]; read-out: minimum inhibitory concentration (MIC), strain 26695, bacterial count 10^6 CFU/mL (second line of the strain)) was 0.25 µg/mL. The MIC (H. pylori [5]; resistant strains 159, 161, 162, 163, 286, 287, 289, and 290, bacterial count 1×10^6 CFU/mL, read-out: MICs) was 1 to 16 µg/mL, the MIC (H. pylori [5]; strain G27, bacterial count 10^4 CFU/mL, read-out: minimum inhibitory concentration (MIC)) was 0.125 µg/mL and the MIC (H. pylori [5]; strain G27, bacterial count 10^6 CFU/mL (first line of the strain), read-out: minimum inhibitory concentration (MIC)) was 0.5 µg/mL. The MIC (H. pylori [5]; strain G27, bacterial count 10^6 CFU/mL (second line of the strain), read-out: minimum inhibitory concentration (MIC)) was 0.5 µg/mL.

— patent US12486489B2, “Culture medium for testing drug resistance of H.pylori as well as preparation method and use thereof” (priority 2022, dated 2025)
